# Test results as given in patent publication US8791092B2 (priority 2009, dated 2014).
# Entries after “also recorded” stand apart in the source; their conditions may differ.
# Key:
# Aβ42 [1] = target: T1, Aβ42 (Homo sapiens, UniProt P05067); experiment: Quiescent Aβ42 fibril formation measured by electron microscopy (EM); assay type: biochemical; set-up: C) 30 μM Aβ42; conditions: 25 μM Aβ42 + 20 μM TW1, days 3, 5, 10
# Experimental: 8 μL of each solution were applied to glow-discharged, carbon-coated Formvar grids and incubated for 20 min. The samples were fixed by incubating with 5 μL of 2.5% glutaraldehyde for 5 min, and stained with 5 μL of 1% uranyl acetate for 5 min. The stained samples were examined using a JEOL CX100 electron microscope. A-C) 25 μM Aβ42. […] A, D) day 3. B, E) day 5. C, F) day 10.
# 5. TW1 attenuates Aβ fibril formation as measured by electron microscopy (EM).
# [2] = tested on: rat primary hippocampal neurons; experiment: Aβ42-induced decrease in dendritic spine density; assay type: cell-based
# Experimental: Neurons were visualized by staining F-actin with phalloidin (red) and nuclei were stained with DAPI (blue). A) Untreated cells show abundant dendritic spines (rough appearance). B and C) Show duplicate fields from the same experiment. Cells incubated with 500 nM Aβ42 oligomers show essential absence of spines (smooth neurites).
# (§1) 8. […] An early neurotoxic event induced by Aβ oligomers and believed to be a predominant pathologic mechanism causing amnestic mild cognitive impairment (MCIa) and early AD^(1) is disruption of synapse morphology and communication (Shankar et al. (2007) J. Neurosci. 27: 2866-2875). […] Aβ42 oligomers caused essentially complete depletion of dendritic spines (FIG. 14, panels B, C) compared to control (FIG. 14, panel A). […] This effect endured after the 15-min washing period.
# insulin = insulin (Homo sapiens, UniProt P01308); experiment: Fibrillogenesis of insulin (ThT fluorescence and EM); assay type: biochemical; conditions: 1:10 or 1:20 concentration ratio
# Chain of insulin (P01308 25-54 limits assumed, species assumed): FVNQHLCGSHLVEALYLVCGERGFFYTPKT
# Chain of insulin (P01308 90-110 partner limits assumed, species assumed): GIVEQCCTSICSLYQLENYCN
# Aβ42 [3] = target: T1, Aβ42; experiment: Quiescent Aβ42 β-sheet formation measured by thioflavin T (ThT) fluorescence; conditions: 25 μM Aβ42, 20 μM tweezers, substoichiometric
# Aβ40 [4] = target: T2, Aβ40 (Homo sapiens, UniProt P05067); assay type: binding; set-up: A) 25 μM Aβ40; conditions: 1:1 Aβ40:TW1 concentration ratio
# T2 sequence (P05067 672-711 limits assumed): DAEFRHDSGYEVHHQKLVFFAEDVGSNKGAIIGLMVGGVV
# Aβ40 [5] = target: T2, Aβ40; conditions: 20 μM Aβ40, 10-fold excess TW1; for over a month
# Aβ42 [6] = target: T1, Aβ42; experiment: Aβ42 aggregation measured by dynamic light scattering (DLS); assay type: biochemical; set-up: C) 30 μM Aβ42
# [7] = tested on: primary mouse hippocampal neurons; experiment: Aβ42-mediated inhibition of miniature excitatory postsynaptic currents (mEPSCs); assay type: cell-based; conditions: 3 μM Aβ42, 1:10 Aβ42:TW1
# Experimental: Cells were perfused with vehicle for 5 min to establish baseline, and then with peptide or peptide:tweezers solutions for additional 20 minutes, and allowed to recover in vehicle solution for 15 minutes.
# as §1
# Aβ42 [8] = target: T1, Aβ42; experiment: β-sheet formation by Aβ42 under agitation (shaking); assay type: biochemical; set-up: C) 30 μM Aβ42; conditions: 10 μM Aβ42; 1:10 Aβ:tweezers concentration ratio; shaken at 200 rpm
# Experimental: Aβ42 was used at 10 μM. […] The samples were shaken at 200 rpm.
# [9] = tested on: Aβ40-induced toxicity in differentiated PC-12 cells; experiment: Aβ40-induced toxicity, MTT assay in differentiated PC-12 cells; assay type: cell-based
# Experimental: (§2) Freshly prepared 10 μM Aβ40 or Aβ42 were mixed with each of the three tweezers derivatives and added to differentiated PC-12 cells. Cell viability relative to media control was measured using the MTT assay.
# (§3) 7. […] Based on the capability of the tweezers to inhibit Aβ aggregation, disaggregate pre-formed Aβ fibrils, and stabilize putatively non-toxic Aβ oligomers, we predicted that they should inhibit Aβ-induced toxicity. […] Next, we evaluated the dose-dependence of the effect of each of the three tweezers derivatives on Aβ40 and Aβ42 using the same cell culture system. Aβ42 was used at 10 μM as in the previous experiment, whereas the less neurotoxic Aβ40 was used at 25 μM. […] PC-12 cells were differentiated for 48 hours prior to the start of the assay. […] Based on the data extant, prediction of inhibitory activity based on tweezers structure alone is impossible. Thus, using molecular tweezers as inhibitors of Aβ toxicity is by no means trivial.
# β2-microglobulin (β2m) = β2-microglobulin (β2m) (Homo sapiens, UniProt P61769); experiment: Fibrillogenesis of β2-microglobulin (ThT fluorescence and EM); assay type: biochemical; conditions: 1:10 or 1:20 concentration ratio
# Chain of β2-microglobulin (β2m) (P61769 21-119): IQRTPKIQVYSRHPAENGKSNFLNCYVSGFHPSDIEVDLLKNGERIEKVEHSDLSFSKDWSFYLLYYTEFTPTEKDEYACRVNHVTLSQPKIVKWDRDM
# [10] = tested on: differentiated PC-12 cells; experiment: Effect of tweezers alone on cell viability, MTT assay; assay type: cell-based; conditions: 50 μM TW1
# Experimental: (§4) Cell viability relative to media control was measured using the MTT assay.
# as §2, §3
# calcitonin = target: T3, calcitonin (Homo sapiens, UniProt P01258); experiment: Fibrillogenesis of calcitonin (ThT fluorescence and EM); assay type: biochemical; conditions: 1:10 or 1:20 concentration ratio
# T3 sequence (P01258 85-116 limits assumed): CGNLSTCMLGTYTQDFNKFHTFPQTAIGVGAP
# [11] = tested on: Aβ42-induced toxicity in differentiated PC-12 cells; experiment: Aβ42-induced toxicity, MTT assay in differentiated PC-12 cells; assay type: cell-based
# Experimental: as §4, §2, §3
# [12] = target: T4, islet amyloid polypeptide (IAPP) (Homo sapiens, UniProt P10997); experiment: Fibrillogenesis of islet amyloid polypeptide (ThT fluorescence and EM); assay type: biochemical; conditions: 1:10 or 1:20 concentration ratio
# T4 sequence (P10997 34-70 limits assumed): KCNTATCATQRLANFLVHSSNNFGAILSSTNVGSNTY
# T1 sequence (P05067 672-713 limits assumed): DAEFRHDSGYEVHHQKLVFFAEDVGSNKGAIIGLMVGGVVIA
smiles,measurement,setting,value
O=P(O)(O)Oc1c2c(c(OP(=O)(O)O)c3c1C1C[C@H]3c3cc4c(cc31)C1C[C@H]4c3ccccc31)[C@@H]1CC2c2cc3c(cc21)[C@@H]1CC3c2ccccc21 [TW1],conversion of Aβ42 to typical amyloid fibrils (EM),Aβ42 [1],delayed substantially
same,"rescue of Aβ42-induced depletion of dendritic spines, TW1 present during oligomer preparation","[2]; 500 nM Aβ42 oligomerized in presence of 250 nM TW1, 48 h",rescued this toxic effect to baseline level; also recorded: essentially complete rescue
same,"rescue of dendritic spines, TW1 added with pre-formed Aβ42 oligomers","[2]; 500 nM pre-formed Aβ42 oligomers, 5 μM TW1 (10-fold excess), 48 h",moderate rescue effect
same,effect of TW1 alone on dendritic spine morphology,[2]; 5 μM TW1,no effect
same,inhibition of insulin fibrillogenesis,insulin,inhibited the fibrillogenesis; also recorded: inhibited the aggregation
same,inhibition of β-sheet formation by Aβ42 (ThT),Aβ42 [3],inhibit β-sheet formation
same,binding site of TW1 in the 1:1 complex (ECD),Aβ40 [4],"within the Aβ(14-23) region, most likely at Lys16; also recorded: Lys16"
same,Aβ40 particle growth (DLS),Aβ40 [5],no particle growth was observed
same,Aβ42 particle growth (DLS),"Aβ42 [6]; 20 μM Aβ42, 10-fold excess TW1, for over a month",no particle growth was observed
same,Aβ42 particle growth (DLS),Aβ42 [6]; 1:1 concentration ratio,substantially delayed or not observed at all
same,rescue of Aβ42-induced reduction of mEPSC frequency,[7],rescued to baseline level; also recorded: rescues the toxic effect of Aβ42 to baseline level
same,inhibition of β-sheet formation by Aβ42 under agitation,Aβ42 [8],efficient inhibition; also recorded: completely inhibited
same,IC50,"[9]; Rattus norvegicus, PC-12, 48 h, read-out: IC50, inhibition of Aβ40-induced toxicity",7 µM
same,inhibition of Aβ40-induced toxicity (in words),"[9]; tweezers 0.1-100 μM, dose-dependence experiment",inhibit Aβ-induced toxicity dose-dependently
same,inhibition of β2m fibrillogenesis,β2-microglobulin (β2m),inhibited the fibrillogenesis; also recorded: inhibited the aggregation
same,toxicity of tweezers alone (in words),[10],nontoxic
same,inhibition of calcitonin fibrillogenesis,calcitonin,inhibited the fibrillogenesis; also recorded: inhibited the aggregation
same,inhibition of Aβ42-induced toxicity (in words),"[11]; 10 μM Aβ42, tweezers 0.1-100 μM, dose-dependence experiment",inhibit Aβ-induced toxicity dose-dependently
same,IC50,"[11]; Rattus norvegicus, 10 μM Aβ42, tweezers 0.1-100 μM, PC-12 differentiated 48 hours, read-out: IC50, inhibition of Aβ42-induced toxicity",60 µM
same,times more TW1 required to inhibit Aβ42 than Aβ40 toxicity,[11]; from IC50 values,9-10 times
same,inhibition of IAPP fibrillogenesis,[12],inhibited the fibrillogenesis; also recorded: inhibited the aggregation
